Reference: US7906484B2, “Complex for transferring an anionic substance into a cell” (Alnylam Pharmaceuticals, Inc., priority 2006, dated 2011)
No end group written: not given here.

Experiments:
[1] = system: E6AP mRNA in HCT116 cells; experiment: siRNA AD-8724 delivery into HCT116 cells, inhibition of E6AP mRNA expression by bDNA assay; format: cell-based, human; settings: siRNA AD-8724 250 nM, molar peptide/siRNA ratio 12.5:1
Procedure: All further experiments were carried out using HCT116 cells and inhibition of E6AP expression as readout.
HCT116-cells were obtained from the American Type Culture Collection (ATCC# CCL-247). They were cultured in McCoy's 5A medium (Biochrom AG, Berlin, Germany, Cat.# F1015) containing 10% fetal calf serum (FCS; Biochrom AG, Berlin, Germany, Cat.# S0115) and 2 mM L-Glutamin (Biochrom AG, Berlin, Germany, Cat.#: K0283) (standard growth medium). For incubation with peptide/siRNA, complexes, the medium was replaced by serum-free McCoy's 5A medium containing 2 mM L-Glutamin (serum free medium). After incubation with complexes for 4 h, McCoy's 5A medium containing 30% fetal calf serum and 2 mM L-Glutamin (triple FCS medium) was added to restore an overall 10% FCS in the medium.
The E6AP-specific siRNA denoted AD-8724 herein was used, having the following sequences: antisense strand: 5′-ucacauuccacguuaggugTsT-3′ (SEQ ID NO:51), sense strand 5′-caccuaacguggaaugugaTsT-3′; (SEQ ID NO:52; lower case letters: ribonucleotides; s: phosphorothioate backbone linkage). As a negative control, an siRNA specific for eGFP, denoted AD-5107 herein, was used, having the following sequences: antisense strand: 5′-aagucgugcugcuucauguggOMesuOMesc-3′ (SEQ ID NO:19), sense strand 5′-[…]-3′ (SEQ ID NO:18; lower case letters: ribonucleotides; subscript OMe: 2′-O-methyl-ribonucleotide; s: phosphorothioate backbone linkage). In addition to the non-specific control siRNA AD-5107, mock transfected cells treated with standard growth medium only were used as negative controls. As a positive control, AD-8724 was transfected into the cells using Lipofectamine2000™ (Invitrogen, Karlsruhe, Germany, Cat. No. 11668-019). As a further control, AD-5107 was transfected into cells using Lipofectamine2000™. All assays were performed in quadruplicates.
SiRNA/peptide complexes were prepared by mixing a solution of the siRNA in deionized water with a solution of the peptide in deionized water at the appropriate concentrations to give the desired ratio of siRNA/peptide at the desired concentration of the complex. The mixture was incubated at room temperature for 30 min and kept at 4° C. until use, and used within 24 h.
For transfections with siRNA/peptide complexes, 1.5×10^5 HCT116-cells per well in 150 μl standard growth medium were seeded into polystyrene 96 well plates and grown for 24 h at 37° C. in an atmosphere containing 5% CO2. The medium was removed by aspiration, and 90 μl serum-free medium and 10 μl of siRNA/peptide complex solution were added. Cells were incubated for 4 h at 37° C./5% CO2, 50 μl triple FCS medium were added, and the cells incubated for another 20 h under identical conditions. Subsequently, E6AP mRNA content was determined as described below.
For Lipofectamine2000™ transfections, 0.5 μl Lipofectamine2000™ were mixed with 12 μl OptiMem™ (Invitrogen, Karlsruhe, Germany, Cat. No. 11058-021) and incubated for 15 min. 1 μl of a 5 μM solution of the respective siRNA in PBS (Biochrom AG, Berlin, Germany, Cat-No: L182-05) were added to 11.5 μl OptiMeM™, mixed with the Lipofectamine2000™/OptiMem™ solution, and incubated for further 15 min. 1.5×10^5 HCT116-cells per well in 150 μl standard growth medium were grown for 24 h as described above, the growth medium removed from the cells by aspiration, and 75 μl fresh standard growth medium and the 25 μl of the siRNA/Lipofectamine2000™ mix were added to the well, to give a final siRNA concentration of 50 nM. The cells were incubated for 24 h at 37° C./5% CO2 and E6AP mRNA concentration determined.
The QuantiGene™ bDNA-kit from Panomics, Inc., Fremont, USA, was used according to manufacturer's instructions. Briefly, cells were lysed by adding 50 μl of Lysis Mixture (from QuantiGene bDNA-kit) to each well and incubation at 53° C. for 1 h. […]

eGFP-mRNA = experiment: Influence of peptide/siRNA ratio on siRNA activity in HCT116 cells; format: cell-based; settings: 250 nM siRNA
Procedure: The optimal ratio of (peptide):(anionic substance) for complex formation, was determined in section 3 above to lie in the range of 8:1 to 13:1 by titrating a fixed concentration of the anionic substance with increasing amounts of the peptide, and monitoring complex formation by electrophoresis of the mixture. To further validate and possibly narrow down the optimum ratio of peptide/anionic substance, an assay with a functional readout was performed. HCT116 cells were incubated with siRNA complexes as described above at concentrations such that the amount of siRNA in the incubation mixture corresponds to a 250 nM concentration of the siRNA, and the peptide/siRNA ratio was 8:1, 10:1, 12:1, or 14:1.

cell viability = experiment: CytoTox ONE cell viability assay; format: cell-based; settings: 2.5 μM peptide
Procedure: Delivery of siRNAs was tested in 7 different cell lines we obtained from the American Type Culture Collection, ATCC, via LCG Promochem GmbH, Wesel, Germany (PC12, ATTC# CRL-1721; HCT116, ATCC# CCL-247; C33A, ATCC# HTB-31; H441, ATCC# HTB-174; NMuLi, ATCC# CRL-1638; HepG2, ATCC# HB-8065; HeLa S3, ATCC# CCL2.2) and in the cell line KB-BCL2-GFP, as described in co-pending U.S. Ser. No. 10/941,663. Target mRNA quantification was performed using the QuantiGene™ bDNA-kit from Panomics, Inc., Fremont, USA, according to the manufacturers instructions, and essentially as described below for H441 cells. Genes constitutively expressed in the various cell lines were chosen as targets and results normalized to GAPDH expression. siRNA concentration was 250 nM, the concentration of the peptide was chosen as given by the molar ratio peptide/siRNA shown in Table 1. Cytotoxicity of peptides was evaluated employing the CytoTox-ONE™ assay (Promega GmbH, Mannheim, Germany).
Potential cytotoxic effects as mediator of inhibition were ruled out by determining cell viability in the presence of 2.5 μM of ppTG20, AP-0, AP-1, AP-27, AP-30, AP32 and AP-34 using the CytoTox ONE™ assay (Promega GmbH, Mannheim, Germany).

Sequence	remaining E6AP mRNA (in % of mock) [1]	further results
GAFRAAARLLRSLWRALLRA [AP-24]	91 ± 16%	
GAFRAAARLLRSLWRLLLRA [AP-23]	82 ± 6%	
GAFRAALRLLRSLWRLLLRA [AP-21]	53 ± 32%	
GAYRAALRLLRSLWRLLSRA [AP-26]	78 ± 6%	
GLFRALARALRSLWRALARA [AP-25]	83 ± 5%	
GLFRALLRLLRRLWRLLLRA [AP-3]	43 ± 7%	Remaining eGFP-mRNA in % of mock-transfected controls (eGFP-mRNA; peptide/siRNA ratio 8:1): 39 ± 10%; Remaining eGFP-mRNA in % of mock-transfected controls (eGFP-mRNA; peptide/siRNA ratio 10:1): 32 ± 4%; Remaining eGFP-mRNA in % of mock-transfected controls (eGFP-mRNA; peptide/siRNA ratio 12:1): 40 ± 5%; Remaining eGFP-mRNA in % of mock-transfected controls (eGFP-mRNA; peptide/siRNA ratio 14:1): 40 ± 8%
GLFRALLRLLRSLWRALARA [AP-22]	32 ± 14%	
GLFRALLRLLRSLWRLLLRA [ppTG20, reference compound]		cell viability (cell viability): None of these peptides led to a significant alteration of cell viability
GLFRALLRLLRSLWRLLLRAHHHHH [AP-0]		cell viability (cell viability): None of these peptides led to a significant alteration of cell viability
GLFRALLRLLRSLWRLLRRA [AP-2]	58 ± 7%	Remaining eGFP-mRNA in % of mock-transfected controls (eGFP-mRNA; peptide/siRNA ratio 8:1): 54 ± 6%; Remaining eGFP-mRNA in % of mock-transfected controls (eGFP-mRNA; peptide/siRNA ratio 10:1): 35 ± 15%; Remaining eGFP-mRNA in % of mock-transfected controls (eGFP-mRNA; peptide/siRNA ratio 12:1): 32 ± 11%; Remaining eGFP-mRNA in % of mock-transfected controls (eGFP-mRNA; peptide/siRNA ratio 14:1): 36 ± 7%
GLFRALLRLLRSLWRLLSRA [AP-16]	43 ± 13%	
GLFRALLRLLRSLWRSLLRA [AP-17]	37 ± 9%	
GLFRALLRLLRSLWRSLSRA [AP-18]	49 ± 3%	
GLFRALRRLLRSLWRLLRRA [AP-5]	108 ± 47%	
GLYRALLRLLRSLWRLLLRA [AP-19]	27 ± 9%	
GLYRALLRLLRSLWRLLSRA [AP-20]	45 ± 6%	
